What was measured:
Format in all cases: cell-based
Drosophila cells = experiment: β-catenin stabilization assay of intracellular GSK3 activity (western blot); settings: added to Drosophila cells; detected on a western blot
From the text: Other assays that test functional GSK3 also provide a further test of intracellular GSK3 activity. These assays rely on the ability to observe indirect consequences of GSK3 activity within cells. An example of such an assay involves β-catenin stabilization. Cellular GSK3 activity leads to the destabilization of cytosolic pools of β-catenin in certain types of cell. Consequently, inhibition of GSK3 results in β-catenin stabilization and accumulation, which can be detected on a western blot. […] Similarly, LiCl in the cell culture medium causes an increase in intracellular β-catenin levels as described in Stambolic et al, Cur. Biol. 6(12):1664-8 (1996).

HepG2 liver cells [1] = experiment: Glucose uptake in stable tissue culture cells
From the text: (§1) In these assays measurement of the effectiveness of a given inhibitor is accomplished by the effect of inhibitors on glycogen synthase activity as described in Thomas et al, Anal. Biochem. 25:486-99 (1968), glucose uptake as described in Begun and Ragolia Endocrinology 137: 2441-6 (1996), Claraldi et al, J. Clin. Invest. 96:2820-27 (1995), Hara et al, PNAS 91:7415-19 (1994), Robinson and James, Am. J. Physiol. 263:E383-93(1992), and Sasoaka et al, JBC 270: 10885-92 (1995) and glucose incorporation into glycogen as described in Begun and Ragolia Endocrinology 137: 2441-6 (1996), Sasoaka et al, JBC 270: 10885-92 (1995), and Takata et al, JBC 267:9065-70 (1992).
(§2) Assays for glucose uptake and glycogen synthesis can be conducted as described for cell-based assays generally. To measure glucose uptake and glycogen synthesis, a variety of stable tissue culture cell lines that respond to insulin stimulation by increasing the synthesis of glycogen and increasing the rate of glucose uptake from the medium can be used. These include HepG2 liver cells, CHO-IR cells, and Hirc cells. Under appropriate conditions the addition of insulin and glucose to HepG2 cells stimulates glycogen synthase activity and this stimulation is potentiated in the presence of the GSK3 inhibitor iodotubercidin.

HepG2 liver cells [2] = experiment: Insulin- and glucose-stimulated glycogen synthase activity in stable tissue culture cells; settings: insulin and glucose added, in the presence of the inhibitor
From the text: as §1, §2

## Nc1ncnc2c1c(I)cn2[C@@H]1O[C@H](CO)[C@@H](O)[C@H]1O [iodotubercidin]
Drosophila cells
  β-catenin accumulation: leads to β-catenin accumulation
HepG2 liver cells [1]
  response of glucose uptake to insulin, glucose and inhibitor: as much as six fold
HepG2 liver cells [2]
  stimulation of glycogen synthase activity by insulin and glucose: potentiated
